Experimental data from PubChem BioAssay (NCI).
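Five compound concentrations were applied to cells in 96-well plates for 48 hours; endpoints were derived by simple linear interpolation of the resulting dose-response curve. TGI: total growth inhibition.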

Assays:
Assay in all cases: NCI anticancer screen, dose series, 48 h
[1] = test system: A498 renal
[2] = test system: A549 NSCLC
[3] = test system: CAKI-1 renal
[4] = test system: CCRF-CEM leukemia
[5] = test system: COLO 205 colon
[6] = test system: DLD-1 colon
[7] = test system: DMS 114 small cell lung
[8] = test system: DMS 273 small cell lung
[9] = test system: HCT-116 colon
[10] = test system: HCT-15 colon
[11] = test system: HL-60(TB) leukemia
[12] = test system: HOP-62 NSCLC
[13] = test system: HOP-92 NSCLC
[14] = test system: HT29 colon
[15] = test system: IGROV1 ovarian
[16] = test system: K-562 leukemia
[17] = test system: KM12 colon
[18] = test system: KM20L2 colon
[19] = test system: LOX IMVI melanoma
[20] = test system: LXFL 529 NSCLC
[21] = test system: M14 melanoma
[22] = test system: M19-MEL melanoma
[23] = test system: MALME-3M melanoma
[24] = test system: MOLT-4 leukemia
[25] = test system: NCI-H226 lung
[26] = test system: NCI-H23 lung
[27] = test system: NCI-H460 lung
[28] = test system: NCI-H522 lung
[29] = test system: OVCAR-3 ovarian
[30] = test system: OVCAR-4 ovarian
[31] = test system: OVCAR-5 ovarian
[32] = test system: RPMI-8226 leukemia
[33] = test system: RXF 393 renal
[34] = test system: SF-268 CNS
[35] = test system: SF-295 CNS
[36] = test system: SF-539 CNS
[37] = test system: SK-MEL-5 melanoma
[38] = test system: SK-OV-3 ovarian
[39] = test system: SN12C renal
[40] = test system: SNB-19 CNS
[41] = test system: SNB-75 CNS
[42] = test system: SNB-78 CNS
[43] = test system: SR leukemia
[44] = test system: SW-620 colon
[45] = test system: TK-10 renal
[46] = test system: U251 CNS
[47] = test system: UACC-257 melanoma
[48] = test system: UACC-62 melanoma
[49] = test system: XF 498 CNS
[50] = test system: ACHN renal
[51] = test system: EKVX NSCLC
[52] = test system: HCC-2998 colon
[53] = test system: OVCAR-8 ovarian
[54] = test system: SK-MEL-2 melanoma
[55] = test system: SK-MEL-28 melanoma
[56] = test system: UO-31 renal

SMILES: O=C(O)c1cc2sc(C(=O)O)cc2s1
- TGI [1]: > 100 µM
- TGI [2]: > 100 µM
- TGI [3]: > 100 µM
- TGI [4]: > 100 µM
- TGI [5]: > 100 µM
- TGI [6]: > 100 µM
- TGI [7]: > 100 µM
- TGI [8]: > 100 µM
- TGI [9]: > 100 µM
- TGI [10]: > 100 µM
- TGI [11]: > 100 µM
- TGI [12]: > 100 µM
- TGI [13]: > 100 µM
- TGI [14]: > 100 µM
- TGI [15]: > 100 µM
- TGI [16]: > 100 µM
- TGI [17]: > 100 µM
- TGI [18]: > 100 µM
- TGI [19]: > 100 µM
- TGI [20]: > 100 µM
- TGI [21]: > 100 µM
- TGI [22]: > 100 µM
- TGI [23]: > 100 µM
- TGI [24]: > 100 µM
- TGI [25]: > 100 µM
- TGI [26]: > 100 µM
- TGI [27]: > 100 µM
- TGI [28]: > 100 µM
- TGI [29]: > 100 µM
- TGI [30]: > 100 µM
- TGI [31]: > 100 µM
- TGI [32]: > 100 µM
- TGI [33]: > 100 µM
- TGI [34]: > 100 µM
- TGI [35]: > 100 µM
- TGI [36]: > 100 µM
- TGI [37]: > 100 µM
- TGI [38]: > 100 µM
- TGI [39]: > 100 µM
- TGI [40]: > 100 µM
- TGI [41]: > 100 µM
- TGI [42]: > 100 µM
- TGI [43]: > 100 µM
- TGI [44]: > 100 µM
- TGI [45]: > 100 µM
- TGI [46]: > 100 µM
- TGI [47]: > 100 µM
- TGI [48]: > 100 µM
- TGI [49]: > 100 µM

SMILES: CCCCCCCCC[C@@H]1C[C@H](O)[C@H](Cc2ccccc2)N1C(=O)OC(C)(C)C
- TGI [1]: 33.7 µM
- TGI [2]: 32.6 µM
- TGI [50]: 30.8 µM
- TGI [3]: 38.2 µM
- TGI [4]: 55.9 µM
- TGI [5]: 31.1 µM
- TGI [6]: 33.8 µM
- TGI [7]: 32.4 µM
- TGI [8]: 32.8 µM
- TGI [51]: 33.5 µM
- TGI [52]: 27.8 µM
- TGI [9]: 31.9 µM
- TGI [10]: 33.9 µM
- TGI [11]: 48.7 µM
- TGI [12]: 34.9 µM
- TGI [13]: 28.9 µM
- TGI [14]: 31.5 µM
- TGI [15]: 33.3 µM
- TGI [16]: > 100 µM
- TGI [17]: 35.2 µM
- TGI [18]: 34.5 µM
- TGI [20]: 30.9 µM
- TGI [21]: 38.4 µM
- TGI [22]: 30.9 µM
- TGI [23]: 34.5 µM
- TGI [24]: > 100 µM
- TGI [26]: 31.6 µM
- TGI [28]: 30 µM
- TGI [29]: 34.6 µM
- TGI [30]: 33 µM
- TGI [31]: 28.5 µM
- TGI [53]: 34.3 µM
- TGI [32]: 63.3 µM
- TGI [33]: 32.2 µM
- TGI [34]: 34.6 µM
- TGI [35]: 30.1 µM
- TGI [36]: 37.2 µM
- TGI [54]: 30.3 µM
- TGI [55]: 34.9 µM
- TGI [37]: 33.1 µM
- TGI [38]: 39 µM
- TGI [39]: 31 µM
- TGI [40]: 33.5 µM
- TGI [41]: 38.1 µM
- TGI [42]: 41.3 µM
- TGI [43]: 46.2 µM
- TGI [44]: 38.4 µM
- TGI [45]: 29.2 µM
- TGI [46]: 30.2 µM
- TGI [47]: 30.6 µM
- TGI [48]: 33.3 µM
- TGI [56]: 27.4 µM
- TGI [49]: 37 µM
